Results taken from patent US20250328351A1, “CARBONIC ANHYDRASE INHIBITORS AND ANTIBIOTICS AGAINST MULTIDRUG RESISTANT BACTERIA” (Purdue Research Foundation, priority 2018, published 2025).
≈ marks a conversion by molar mass, not a printed value. Where two headings read alike, the source gives them in different places. One block for each compound: values may come before it.

Columns and labels:
[1] = test system: Enterococcus faecalis S613 HM-334; test: MIC, broth microdilution (CLSI); assay type: cell-based; settings: Enterococcus faecalis, read-out: MIC
Method: (§1) The minimum inhibitory concentrations (MICs) of the compounds and control drugs were determined using the broth microdilution method, according to guidelines outlined by the Clinical and Laboratory Standards Institute (CLSI). Enterococci strains were grown aerobically overnight on tryptone soya agar plates at 37° C., afterwards a bacterial solution equivalent to 0.5 McFarland standard was prepared and diluted in tryptone soy broth (TSB) to achieve a bacterial concentration of about 5×10^5 CFU/mL and seeded in 96-well well plates. Compounds and control drugs were added in the first row of the 96-well plates and serially diluted along the plates. Plates were then incubated aerobically at 37° C. for 18-20 hours. MICs reported in Table 1 are the minimum concentration of the compounds/control drugs that could inhibit completely the visual growth of the bacteria.
(§2) The minimum inhibitory concentrations (MICs) of CAIs were tested against clinical isolates of vancomycin sensitive and vancomycin resistant Enterococci strains as per the guidelines provided by the Clinical and Laboratory Standards Institute (CLSI). The selected strains of Enterococci were streaked on Tryptic Soy Agar (TSA) plates and let grow for 24 hours at 37° C. Afterwards, a bacterial solution equivalent to 0.5 McFarland standard was prepared and diluted in tryptone soy broth (TSB) or brain heart infusion broth (BHIB) to achieve a bacterial concentration of about 5×10^5 CFU/mL and seeded in 96-well well plates. Compounds and control drugs were added in the first row of the 96-well plates and serially diluted along the plates. Plates were then incubated aerobically at 37° C. for 18-20 hours. MICs reported in Table 5 are the minimum concentration of the compounds/control drugs that could inhibit completely the visual growth of the bacteria.
The minimum inhibitory concentrations (MICs) of CAIs were tested against vancomycin resistant Enterococcus faecalis—S613 HM 334 strain as per the guidelines provided by the Clinical and Laboratory Standards Institute (CLSI). The selected strain was streaked on Tryptic Soy Agar (TSA) plate and let grow for 24 hours at 37° C. […] Compounds and control drugs were added in the first row of the 96-well plates and serially diluted along the plates. Plates were then incubated aerobically at 37° C. for 18-20 hours. MICs reported in table (6) are the minimum concentration of the compounds/control drugs that could inhibit completely the visual growth of the bacteria.

[2] = test system: Bacteroides dorei CL02T12C06 HM-719; test: MIC against human normal gut microbiota; assay type: cell-based; settings: Phocaeicola dorei; Table 3; BHIS broth, anaerobic, 48 hours; read-out: MIC
Method: (§3) Three different bacterial strains were used in this experiment; Bifidobacterium (anaerobic Gram positive bacteria), Bacteroides (anaerobic Gram negative bacteria) and Lactobacillus (microaerophilic Gram positive bacteria). Bifidobacterium and Bacteroides were first grown for 48 hours at 37° C., anaerobically using brain heart infusion supplemented (BHIS) agar (Brain heart infusion agar supplemented with hemin, vitamin K and L-cysteine). Lactobacillus was cultivated on MRS agar and incubated in presence of 5% CO2 for 48 hours at 37° C. Each bacterium was suspended in phosphate buffered saline (PBS) to produce a suspension with optical density that matches 0.5 McFarland standard and diluted in brain heart infusion supplemented broth (for Bifidobacterium and Bacteroides) or in MRS broth (for Lactobacillus) to achieve bacterial concentration of approximately 5×10^5 CFU/ml. Bacteria were then seeded in 96-well plates containing serial dilutions of the compounds and incubated as mentioned previously for 48 hours.

[3] = test system: Bacteroides fragilis CL07T00C01 HM-709; test: MIC against human normal gut microbiota; assay type: cell-based; settings: Table 3, BHIS broth, anaerobic, 48 hours, read-out: MIC
Method: as §3

[4] = test system: Bifidobacterium breve JCP7499 HM 1120; test: MIC against human normal gut microbiota; assay type: cell-based; settings: JCP7499HM1120, Table 3, BHIS broth, anaerobic, 48 hours, read-out: MIC
Method: as §3

[5] = test system: vancomycin-resistant E. faecium; test: Mouse model of GI colonization by VRE; assay type: in vivo, C57BL/6 mice
Source text: Feasibility in vivo study: AZM reduces VRE load in the intestines and faeces. The promising feature, and the specific and potent antimicrobial activity of CAIs, prompted us to evaluate the in vivo efficacy of AZM in our established mouse model of GI colonization by enterococci with features that mimic the antibiotic-induced enterococcal expansion observed in humans (Mohammad, H. et al., Int J Antimicrob Agents 2018, 51, 897-904; Abdelkhalek, A, et al., PLoS One 2018, 13, e0199710). We tested AZM (two clinical doses 10 and 20 mg/kg) in female 12-week-old C57BL/6 mice (n=5 mice per group) that were sensitized with ampicillin ([…] in drinking water) for 7 days to reduce the microbiota present in the gastrointestinal tract and colonized with 10^8 CFU/mL of vancomycin-resistant E. faecium.
We thought that the rapid absorption of AZM from the gastrointestinal tract would limit their exposure time to VRE present in the gastrointestinal tract.
Mice were treated for 8 days with 10 mg/kg of drugs by oral gavage.

E. faecium NR 31909 = settings: oral 20 mg/kg daily for 4 days
Source text: Saline was used as a negative control. Mice were euthanized on day 5 and organs (liver, spleen and kidneys) were aseptically removed and homogenized, and viable VRE were enumerated by serial dilution and plating.

[6] = test system: Enterococcus faecium E417 - HM-965; test: MIC, broth microdilution (CLSI); assay type: cell-based; settings: Enterococcus faecium, E417HM965, Table 7; TSB; read-out: MIC
Method: as §1, §2

[7] = test system: Enterococcus faecium Patient #2-1 - NR-31909; test: MIC, broth microdilution (CLSI); assay type: cell-based; settings: Enterococcus faecium, Table 7; TSB; read-out: MIC
Method: as §1, §2

[8] = test system: Enterococcus fecalis Strain SF 24397 NR31970; test: MIC, broth microdilution (CLSI); assay type: cell-based; settings: Enterococcus, Table 7; TSB; read-out: MIC
Method: as §1, §2

[9] = test system: Enterococcus faecium Patient #3-1 NR-31912; test: MIC, broth microdilution (CLSI); assay type: cell-based; settings: Enterococcus faecium, Table 7; TSB; read-out: MIC
Method: as §1

[10] = test system: Enterococcus fecalis Strain SF 28073 - NR31972; test: MIC, broth microdilution (CLSI); assay type: cell-based; settings: Enterococcus, Table 7; TSB; read-out: MIC
Method: as §1

[11] = test system: Enterococcus fecalis Strain SF24413 NR31971; test: MIC, broth microdilution (CLSI); assay type: cell-based; settings: Enterococcus, Table 7; TSB; read-out: MIC
Method: as §1

VERO cells = test: In vitro cytotoxicity, MTS assay; assay type: cell-based, monkey; settings: concentration up to 128 μg/mL; two hours incubation
Method: Toxicity assessment: Compounds AS005H, AS005J, AS004B, AS005K, AS005A and 005D were assayed (at concentrations of 64 and 128 μg/mL) against a fibroblast-like monkey kidney cell line (VERO cell) to determine the potential toxic effect in vitro. Briefly, cells were cultured in Minimum Essential Medium (MEM) supplemented with 10% fetal bovine serum (FBS), 1 mM sodium pyruvate, and penicillin-streptomycin at 37° C. with CO2 (5%). Control cells received DMSO alone at a concentration equal to that in drug-treated cell samples. The cells were incubated with the compounds (in triplicate) in a 96-well plate at 37° C. with CO2 (5%) for two hours. The assay reagent MTS 3-(4,5-dimethylthiazol-2-yl)-5-(3-carboxymethoxyphenyl)-2-(4-sulfophenyl)-2H-tetrazolium) (Promega, Madison, WI, USA) was subsequently added and the plate was incubated for four hours. Absorbance readings (at OD490) were taken using a kinetic microplate reader (Molecular Devices, Sunnyvale, CA, USA). The quantity of viable cells after treatment with each compound was expressed as a percentage of the viability of DMSO-treated control cells (average of triplicate wells±standard deviation). The toxicity data was analyzed via a two-way ANOVA, with post hoc Dunnet's multiple comparisons test (P<0.05), utilizing GraphPad Prism 6.0 (GraphPad Software, La Jolla, CA).
(§4) Percent viable mammalian cells (measured as average absorbance ratio (test agent relative to DMSO) for cytotoxicity analysis of compounds AS005H, AS005J, AS004B, AS005K, AS005A and 005D (tested in triplicates) at 64 and 128 μg/mL against VERO cells using the MTS 3-(4,5-dimethylthiazol-2-yl)-5-(3-carboxymethoxyphenyl)-2-(4-sulfophenyl)-2H-tetrazolium) assay. Dimethyl sulfoxide (DMSO) was used as a negative control to determine a baseline measurement for the cytotoxic impact of each compound. The absorbance values represent an average of a minimum of three samples analyzed for each compound. Error bars represent standard deviation values for the absorbance values.

Caco-2 cells = test: In vitro cytotoxicity, MTS assay; settings: concentration up to 128 μg/mL; two hours incubation
Method: Method: Compounds AS005H, AS005J, AS004B, AS005K, AS005A and 005D were assayed (at concentrations of 64 and 128 μg/mL) against a human colorectal adenocarcinoma (Caco-2) cell to determine the potential toxic effect to mammalian cells in vitro. Briefly, cells were cultured in Dulbecco's Modified Eagle Medium (DMEM) supplemented with 20% fetal bovine serum (FBS), non-essential amino acids (1×), penicillin-streptomycin at 37° C. with CO2 (5%). Control cells received DMSO alone at a concentration equal to that in drug-treated cell samples. The cells were incubated with the compounds (in triplicate) in a 96-well plate at 37° C. with CO2 (5%) for two hours. The assay reagent MTS 3-(4,5-dimethylthiazol-2-yl)-5-(3-carboxymethoxyphenyl)-2-(4-sulfophenyl)-2H-tetrazolium) (Promega, Madison, WI, USA) was subsequently added and the plate was incubated for four hours. Absorbance readings (at OD490) were taken using a kinetic microplate reader (Molecular Devices, Sunnyvale, CA, USA). The quantity of viable cells after treatment with each compound was expressed as a percentage of the viability of DMSO-treated control cells (average of triplicate wells±standard deviation). The toxicity data was analyzed via a two-way ANOVA, with post hoc Dunnet's multiple comparisons test (P<0.05), utilizing GraphPad Prism 6.0 (GraphPad Software, La Jolla, CA).
as §4, with “of” for “of compounds”, “005D compounds” for “005D”, “triplicate)” for “triplicates)”, “Caco-2” for “VERO”, “values. A two-way ANOVA, with post hoc Dunnet's multiple comparisons test, determined statistical difference (denoted by the asterisk) (P<0.05) between the values obtained for each compound and DMSO (negative control, used as solvent for the compounds).” for “values.”

Compound: CC(=O)Nc1nnc(S(N)(=O)=O)s1 [Acetazolamide]
MIC ([1]; S613HM334, Table 1, TSB): 2 µg/mL (≈ 9 µM) | MIC ([1]; S613HM334, Table 5, BHIB): > 128 µg/mL | MIC ([1]; S613HM334, Table 5, TSB): 2 µg/mL (≈ 9 µM) | MIC ([1]; S613HM334, Table 6, TSB in presence of 4% human serum albumin): > 256 µg/mL | MIC ([1]; S613HM334, Table 7, TSB): 2 µg/mL (≈ 9 µM) | MIC [2]: > 64 µg/mL | MIC [3]: > 64 µg/mL | MIC [4]: > 64 µg/mL | VRE in feces, cecal content and ileal content compared to control mice ([5]; 10 mg/kg or 20 mg/kg once a day, feces as early as 3rd day): significant reduction | VRE reduction compared with linezolid ([5]; AZM 10 and 20 mg/kg, linezolid 10 mg/kg once daily for 8 days): outperformed linezolid | mice protected against a lethal dose (survival) (E. faecium NR 31909): 100% | reduction of bacterial load in internal organs compared with linezolid (E. faecium NR 31909; liver, spleen, kidneys on day 5): superior to linezolid

Compound: NS(=O)(=O)c1nnc(NC(=O)C=CC2CCCCC2)s1 [CAI0019, 3-cyclohexyl-N-(5-sulfamoyl-1,3,4-thiadiazol-2-yl)propenamide]
MIC [6]: 0.007 µg/mL (≈ 0.0221 µM) | MIC [7]: 0.003 µg/mL (≈ 0.00948 µM) | MIC [8]: 0.015 µg/mL (≈ 0.0474 µM) | MIC [9]: 0.007 µg/mL (≈ 0.0221 µM) | MIC [10]: 0.015 µg/mL (≈ 0.0474 µM) | MIC [11]: 0.015 µg/mL (≈ 0.0474 µM) | MIC ([1]; S613HM334, Table 7, TSB): 0.007 µg/mL (≈ 0.0221 µM)

MIC ([1]; S613HM334, Table 1, TSB): 1 µg/mL (≈ 3.2 µM) | MIC ([1]; S613HM334, Table 7, TSB): 1 µg/mL (≈ 3.2 µM)
Compound: CCc1ccc(C(=O)Nc2nnc(S(N)(=O)=O)s2)cc1 [CAI0017, 4-Ethyl-N-(5-sulfamoyl-1,3,4-thiadiazol-2-yl)benzamide]
MIC [2]: > 64 µg/mL | MIC [3]: > 64 µg/mL | MIC [4]: > 64 µg/mL | toxicity to VERO cells (percent viable cells, MTS) (VERO cells): non-toxic | toxicity to Caco-2 cells (percent viable cells, MTS) (Caco-2 cells): non-toxic
